Assay [1] relates to OVCAR4 cells. Put plainly: Cisplatin dose-response, cell viability by MTT assay. Type of assay: cell-based, human. Conditions: for IC50: 24 h, MTT. How it is done:
(§1) A majority of HGSOC patients treated with platinum-based (i.e., carboplatin) chemotherapy develop chemoresistance. […] To test this hypothesis, CBX2 knockdown OVCAR4, PEO1, and OVCAR8 cells were grown in an adherent setting for 24 h and subsequently treated with increasing doses of cisplatin.
CBX2 knockdown OVCAR4, PEO1, and OVCAR8 cells were grown in suspension and dosed with cisplatin. […] Although not as robust as OVCAR4 cells, CBX2knockdown also sensitized OVCAR8 and PEO1 cells to cisplatin (FIG. 7B Panels C-D). […] In addition, we further confirmed that in OVCAR4, loss of CBX2 lead to increased cisplatin-induced apoptosis measured with Annexin V/PI (FIG. 6 Panel C).
(§2) Panels of FIG. 6 are as follows. Panel A: OVCAR4 shControl, shCBX2 #1, and shCBX2 #2 in 96-well plates treated over 24 h with increasing dose of cisplatin (0.5-100 μM). Percent cell viability was measured using the MTT assay and the half maximal inhibitory concentration (IC50) calculated. Panel B: Similarly to (Panel A), OVCAR4 knockdown cell lines were grown in low adherent 96-well plates (forced suspension) and treated with increasing doses of cisplatin over 24 h and percent cell viability measured with MTT for calculation of IC50. Panel C: Annexin/V apoptosis assay of OVCAR4 cells grown in adherent setting with shControl, shCBX2 #1 or #2 treated with cisplatin (10 μM) compared to untreated control. Percent Annexin positive cells are shown. Statistical test=ANOVA. Error bars=S.E.M.
PEO1 and OVCAR4 cells were plated in 96-well plates in both adherent (4000 cells per well) and suspension (6000 cells per well) environments, as described above. These cells were treated over 24 h with increasing concentrations of Cisplatin (0.5-100 μM). 1640 RPMI media and media with 0.9% NaCl were used for control and vehicle control, respectively. Cell viability was assessed using the 3-(4,5-dimethylthiazol-2-yl)-5-(3-carboxymethoxyphenyl)-2-(4-sulfophenyl)-2H-tetrazolium (MTT) assay (Promega, Madison, WI). Means of at least five wells are reported and experiments were independently repeated in triplicate. Representative dose-response curves are shown.

For assay [2], the system named is PEO1 cells. The description is as above. The class given is cell-based, human. The following applies: 48 hours. On the procedure:
as §1
(§3) The panels in FIG. 7A and FIG. 7B are as follows. Panel A: shControl (shCtrl), shCBX2 #1 and #2 OVCAR8 cells grown in adherent were dosed with cisplatin for 24 hours. Treated cells were utilized for a MTT assay to assess cell viability. Panel B: Same as A, but adherent PEO1 cells were dosed with cisplatin for 48 hours. Panel C: Same as A, but OVCAR8 cells in suspension were dosed with cisplatin for 24 hours. Panel D: Same as A, but PEO1 cells in suspension were dosed with cisplatin for 48 hours. IC50 values were calculated with Prism and are indicated.
PEO1 and OVCAR4 cells were plated in 96-well plates in both adherent (4000 cells per well) and suspension (6000 cells per well) environments, as described above. These cells were treated over 24 h with increasing concentrations of Cisplatin (0.5-100 μM). 1640 RPMI media and media with 0.9% NaCl were used for control and vehicle control, respectively. Cell viability was assessed using the 3-(4,5-dimethylthiazol-2-yl)-5-(3-carboxymethoxyphenyl)-2-(4-sulfophenyl)-2H-tetrazolium (MTT) assay (Promega, Madison, WI). […]

Assay [3] has as its system OVCAR8 cells. Described as above. The class given is cell-based, human. The following applies: 24 hours. How it is done:
as §3, with “A majority of HGSOC patients treated with platinum-based (i.e., carboplatin) chemotherapy develop chemoresistance. […] To test this hypothesis, CBX2 knockdown OVCAR4, PEO1, and OVCAR8 cells were grown in an adherent setting for 24 h and subsequently treated with increasing doses of cisplatin. […] The” for “The”

The subject of assay [4] is OVCAR4 cells. Kind of assay: Annexin V/PI apoptosis assay. The class given is cell-based, human. Conditions: OVCAR4 adherent, loss of CBX2 (shCBX2 #1 or #2) vs shControl, cisplatin 10 μM. On the procedure:
as §2
Following 72 h of growth in adherent and suspended states, OVCAR4 and PEO1 cells were harvested and washed in PBS. Alexa Fluor™ 488 Conjugated AnnexinV and Propidium Iodide (PI) (Thermo Fisher Scientific) staining were performed following manufacturer's protocol.

In assay [5] the test system is OVCAR4 cells. Conditions: cells allowed to recover 72 h following cisplatin treatment; read-out: OVCAR4 cisplatin IC50 reported by Haley et al.; cited from earlier work.

Like-named read-outs stand apart in the source and are kept apart here.

The IC50 is the concentration that inhibits the measured activity by half. Take `N.N.[Cl][Pt][Cl]` [cisplatin]: the “chemosensitivity to cisplatin, shCBX2 cell lines vs shControl cells” value was “significantly more chemosensitive” in assay [1] (OVCAR4, adherent); “significantly more chemosensitive” in assay [2] (PEO1, adherent); “significantly more chemosensitive” in assay [3] (OVCAR8, adherent). Moreover, the “increase in the cisplatin IC50 in suspension cells compared to the adherent cells” value in assay [1] (OVCAR4 cells) was 4.47 fold. Moreover, the IC50 in assay [1] (OVCAR4 control with intact CBX2, adherent) was determined as 38.7 µM; in assay [1] (OVCAR4 control with intact CBX2, suspension) it was 170 µM; in assay [1] (OVCAR4 shCBX2 #1 knockdown cells, adherent) it was 12.7 µM; in assay [1] (OVCAR4 shCBX2 #1 knockdown cells, suspension) it was 7.19 µM; in assay [1] (OVCAR4 shCBX2 #2 knockdown cells, adherent), 15.4 µM; in assay [1] (OVCAR4 shCBX2 #2 knockdown cells, suspension) it was 18.1 µM. Moreover, in assay [5], the 50% inhibitory concentration (IC50) is roughly 6 µM. Moreover, the “sensitivity to cisplatin after CBX2 knockdown” value in assay [2] (PEO1, suspension) is “sensitized”; in assay [3] (OVCAR8, suspension) it was “sensitized”. Moreover, the “cisplatin-induced apoptosis measured with Annexin V/PI” value in assay [4] is given as “increased”.

The record behind these values is patent US20250199004A1, “METHODS OF EVALUATING TREATMENT OUTCOME IN HIGH GRADE SEROUS OVARIAN CANCER” (THE REGENTS OF THE UNIVERSITY OF COLORADO, A BODY CORPORATE, priority 2018, published 2025).
